Here are results for 16 molecules from US11547697B2, “Heterocyclic compounds and uses thereof” (MILLENNIUM PHARMACEUTICALS, INC., priority 2009, dated 2023).

Where two headings read alike, the source gives them in different places.

For assay [1], the target named is p110β/p85α (Homo sapiens (Human), UniProt P42338). Put plainly: PI 3-Kinase (human) HTRF assay, p110β/p85α. In kind it is biochemical. As to conditions: read-out: PI3K β IC50. Background: TR-FRET usually uses a lanthanide donor and a delayed reading to cut background.
Sequence of p110β/p85α (P42338 whole entry): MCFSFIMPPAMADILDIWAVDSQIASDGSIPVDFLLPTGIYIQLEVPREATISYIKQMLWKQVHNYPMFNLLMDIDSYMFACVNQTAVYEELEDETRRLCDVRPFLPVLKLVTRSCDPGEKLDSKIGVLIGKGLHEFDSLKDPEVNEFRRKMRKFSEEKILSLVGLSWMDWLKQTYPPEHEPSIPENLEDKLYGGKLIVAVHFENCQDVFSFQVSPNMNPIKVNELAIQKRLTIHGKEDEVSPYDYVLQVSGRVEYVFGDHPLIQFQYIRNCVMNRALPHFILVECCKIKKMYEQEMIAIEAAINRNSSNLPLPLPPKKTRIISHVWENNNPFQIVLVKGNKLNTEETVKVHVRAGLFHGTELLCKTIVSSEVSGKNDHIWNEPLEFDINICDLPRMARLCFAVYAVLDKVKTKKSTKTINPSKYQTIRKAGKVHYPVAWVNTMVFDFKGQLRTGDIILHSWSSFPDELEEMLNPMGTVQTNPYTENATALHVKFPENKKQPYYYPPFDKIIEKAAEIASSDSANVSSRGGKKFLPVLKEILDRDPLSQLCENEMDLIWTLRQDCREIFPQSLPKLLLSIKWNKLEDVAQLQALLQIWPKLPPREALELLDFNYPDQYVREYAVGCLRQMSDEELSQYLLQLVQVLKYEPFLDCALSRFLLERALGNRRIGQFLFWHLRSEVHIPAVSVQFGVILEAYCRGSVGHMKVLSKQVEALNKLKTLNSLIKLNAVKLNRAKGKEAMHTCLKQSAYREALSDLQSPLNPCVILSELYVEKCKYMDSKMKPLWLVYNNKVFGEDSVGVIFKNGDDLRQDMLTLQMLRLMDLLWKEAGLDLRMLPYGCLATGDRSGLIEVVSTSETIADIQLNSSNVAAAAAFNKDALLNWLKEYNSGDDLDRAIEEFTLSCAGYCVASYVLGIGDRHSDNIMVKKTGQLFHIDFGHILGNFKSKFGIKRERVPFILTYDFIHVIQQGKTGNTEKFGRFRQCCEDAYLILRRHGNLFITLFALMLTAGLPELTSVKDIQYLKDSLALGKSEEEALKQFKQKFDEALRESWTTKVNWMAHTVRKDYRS
Sequence of p110β/p85α (P27986 whole entry partner): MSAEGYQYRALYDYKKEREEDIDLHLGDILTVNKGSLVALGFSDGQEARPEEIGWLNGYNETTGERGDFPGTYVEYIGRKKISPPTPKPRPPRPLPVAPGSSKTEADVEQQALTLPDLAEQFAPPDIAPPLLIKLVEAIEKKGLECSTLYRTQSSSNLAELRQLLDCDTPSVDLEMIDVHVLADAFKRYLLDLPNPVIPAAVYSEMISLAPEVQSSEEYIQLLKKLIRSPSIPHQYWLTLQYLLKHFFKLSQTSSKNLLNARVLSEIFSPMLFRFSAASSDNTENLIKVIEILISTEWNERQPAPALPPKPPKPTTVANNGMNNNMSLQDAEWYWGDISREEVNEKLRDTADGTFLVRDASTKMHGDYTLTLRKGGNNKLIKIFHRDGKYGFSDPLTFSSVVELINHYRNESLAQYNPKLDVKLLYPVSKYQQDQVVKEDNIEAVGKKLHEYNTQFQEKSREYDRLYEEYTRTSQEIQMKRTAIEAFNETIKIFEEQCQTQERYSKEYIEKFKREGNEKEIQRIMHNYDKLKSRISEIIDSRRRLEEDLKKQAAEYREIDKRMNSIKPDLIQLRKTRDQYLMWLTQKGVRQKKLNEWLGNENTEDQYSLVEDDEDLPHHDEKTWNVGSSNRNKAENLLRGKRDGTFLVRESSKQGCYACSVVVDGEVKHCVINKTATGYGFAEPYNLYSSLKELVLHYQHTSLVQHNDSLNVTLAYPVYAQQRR
For assay [2], the target named is p110δ/p85α (Homo sapiens (Human), UniProt O00329). Put plainly: PI 3-Kinase (human) HTRF assay, p110δ/p85α. In kind it is biochemical. The settings on record: read-out: PI3K δ IC50.
Sequence of p110δ/p85α (O00329 whole entry): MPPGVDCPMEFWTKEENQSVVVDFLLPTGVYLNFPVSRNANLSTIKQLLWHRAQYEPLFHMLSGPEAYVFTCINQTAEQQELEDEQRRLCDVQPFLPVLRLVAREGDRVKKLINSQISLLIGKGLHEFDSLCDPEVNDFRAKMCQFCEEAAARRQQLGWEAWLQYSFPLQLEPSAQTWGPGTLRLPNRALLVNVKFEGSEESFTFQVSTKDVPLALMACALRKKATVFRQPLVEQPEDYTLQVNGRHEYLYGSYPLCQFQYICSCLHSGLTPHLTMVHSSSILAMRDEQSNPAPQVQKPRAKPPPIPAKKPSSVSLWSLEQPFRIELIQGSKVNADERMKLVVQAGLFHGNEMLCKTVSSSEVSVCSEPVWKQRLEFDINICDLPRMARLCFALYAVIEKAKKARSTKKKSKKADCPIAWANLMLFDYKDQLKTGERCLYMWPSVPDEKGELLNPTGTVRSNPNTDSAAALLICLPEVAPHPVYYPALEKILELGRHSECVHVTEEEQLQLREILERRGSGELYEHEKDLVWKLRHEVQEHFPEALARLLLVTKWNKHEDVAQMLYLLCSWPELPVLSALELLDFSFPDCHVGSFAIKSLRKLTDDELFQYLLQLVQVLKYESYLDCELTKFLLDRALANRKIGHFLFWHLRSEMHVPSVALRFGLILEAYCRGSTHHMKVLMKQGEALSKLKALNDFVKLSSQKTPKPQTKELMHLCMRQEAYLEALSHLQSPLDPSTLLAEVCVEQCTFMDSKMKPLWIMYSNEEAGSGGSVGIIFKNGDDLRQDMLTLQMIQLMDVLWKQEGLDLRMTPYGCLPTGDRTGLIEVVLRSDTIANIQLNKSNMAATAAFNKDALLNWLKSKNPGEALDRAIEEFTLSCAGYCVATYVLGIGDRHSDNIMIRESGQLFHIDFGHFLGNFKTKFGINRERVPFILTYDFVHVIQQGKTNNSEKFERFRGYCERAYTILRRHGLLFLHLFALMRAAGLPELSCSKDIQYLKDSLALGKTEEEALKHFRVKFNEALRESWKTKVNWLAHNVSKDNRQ
Sequence of p110δ/p85α (P27986 whole entry partner): as the sequence (P27986 whole entry partner) above
Assay [3] deals with p110α/p85α (Homo sapiens (Human), UniProt P42336). Put plainly: PI 3-Kinase (human) HTRF assay, p110α/p85α. The assay is classed as biochemical. The settings on record: read-out: PI3K α IC50.
Sequence of p110α/p85α (P42336 whole entry): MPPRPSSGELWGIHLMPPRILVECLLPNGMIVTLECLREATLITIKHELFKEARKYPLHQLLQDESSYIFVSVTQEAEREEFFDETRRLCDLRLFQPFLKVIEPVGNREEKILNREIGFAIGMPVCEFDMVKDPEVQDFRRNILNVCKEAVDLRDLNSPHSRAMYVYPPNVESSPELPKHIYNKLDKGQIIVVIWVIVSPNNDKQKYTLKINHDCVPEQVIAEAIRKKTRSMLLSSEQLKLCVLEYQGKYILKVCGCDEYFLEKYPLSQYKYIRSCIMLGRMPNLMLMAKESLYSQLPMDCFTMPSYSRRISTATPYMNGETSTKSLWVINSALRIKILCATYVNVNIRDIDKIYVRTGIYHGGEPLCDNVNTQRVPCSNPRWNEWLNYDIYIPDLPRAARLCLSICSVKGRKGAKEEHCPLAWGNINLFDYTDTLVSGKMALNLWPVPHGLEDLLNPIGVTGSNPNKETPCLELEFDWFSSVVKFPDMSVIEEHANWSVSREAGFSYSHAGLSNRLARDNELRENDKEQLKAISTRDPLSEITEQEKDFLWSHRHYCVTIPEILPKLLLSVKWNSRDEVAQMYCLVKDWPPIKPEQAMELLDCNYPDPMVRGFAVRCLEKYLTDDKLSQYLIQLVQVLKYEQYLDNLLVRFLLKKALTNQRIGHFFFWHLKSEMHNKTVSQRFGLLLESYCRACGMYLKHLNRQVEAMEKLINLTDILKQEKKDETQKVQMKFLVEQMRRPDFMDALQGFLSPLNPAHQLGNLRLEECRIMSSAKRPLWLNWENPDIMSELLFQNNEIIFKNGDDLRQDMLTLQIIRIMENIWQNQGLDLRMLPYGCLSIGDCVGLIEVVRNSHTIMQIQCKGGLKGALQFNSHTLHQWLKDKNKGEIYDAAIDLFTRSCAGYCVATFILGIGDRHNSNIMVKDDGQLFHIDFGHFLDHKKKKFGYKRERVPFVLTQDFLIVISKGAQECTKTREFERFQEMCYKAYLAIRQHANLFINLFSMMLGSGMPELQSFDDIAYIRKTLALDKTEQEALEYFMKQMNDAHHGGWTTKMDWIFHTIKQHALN
Sequence of p110α/p85α (P27986 whole entry partner): as the sequence (P27986 whole entry partner) above
For assay [4], the system named is tumor cells with a PI3Kα mutation (e.g., MDA-MB-361 and T47D). Briefly: Proliferation of tumor cells with PI3Kα mutation. In kind it is cell-based. As to conditions: Homo sapiens, T47D cells.
Assay [5] has as its target p110γ (Homo sapiens (Human), UniProt P48736). Briefly: PI 3-Kinase (human) HTRF assay, p110γ. As to conditions: read-out: PI3K γ IC50. The assay is classed as biochemical.
[6] abbreviates: read-out: T47D proliferation IC50.

Sequence of p110γ (P48736 whole entry): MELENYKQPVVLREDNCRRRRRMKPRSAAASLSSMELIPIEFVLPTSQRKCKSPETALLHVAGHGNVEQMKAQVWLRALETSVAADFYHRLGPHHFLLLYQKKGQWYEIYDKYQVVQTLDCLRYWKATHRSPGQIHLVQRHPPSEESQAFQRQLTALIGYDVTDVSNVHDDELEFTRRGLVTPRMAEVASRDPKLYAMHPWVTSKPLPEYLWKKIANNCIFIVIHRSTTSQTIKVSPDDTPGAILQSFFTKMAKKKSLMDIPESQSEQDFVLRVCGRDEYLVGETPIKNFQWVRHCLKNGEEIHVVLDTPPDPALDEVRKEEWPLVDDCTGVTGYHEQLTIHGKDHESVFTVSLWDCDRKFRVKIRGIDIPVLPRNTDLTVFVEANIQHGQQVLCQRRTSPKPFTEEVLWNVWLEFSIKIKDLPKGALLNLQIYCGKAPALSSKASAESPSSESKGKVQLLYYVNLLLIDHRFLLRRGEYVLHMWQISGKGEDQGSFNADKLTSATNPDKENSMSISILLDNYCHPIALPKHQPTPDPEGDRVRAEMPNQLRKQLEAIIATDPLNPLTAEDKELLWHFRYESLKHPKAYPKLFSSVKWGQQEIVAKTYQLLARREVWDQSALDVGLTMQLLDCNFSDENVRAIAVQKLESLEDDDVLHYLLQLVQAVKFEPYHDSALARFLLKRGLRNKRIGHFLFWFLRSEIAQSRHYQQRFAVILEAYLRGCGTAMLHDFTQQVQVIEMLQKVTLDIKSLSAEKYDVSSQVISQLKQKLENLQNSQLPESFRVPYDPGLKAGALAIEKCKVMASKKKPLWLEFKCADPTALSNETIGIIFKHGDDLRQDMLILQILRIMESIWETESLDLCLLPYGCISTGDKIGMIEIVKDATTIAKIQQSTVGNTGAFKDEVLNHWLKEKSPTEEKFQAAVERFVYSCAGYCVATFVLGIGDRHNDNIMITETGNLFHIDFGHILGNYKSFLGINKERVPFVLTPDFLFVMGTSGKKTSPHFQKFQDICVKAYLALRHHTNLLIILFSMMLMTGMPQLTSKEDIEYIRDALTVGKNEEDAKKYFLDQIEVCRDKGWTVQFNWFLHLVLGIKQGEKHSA

In the case of `Nc1nc2cc(-c3ccc4ncc(C(=O)N5CCCC5)n4c3)ccc2o1` [compound 186], the IC50 in assay [1] was < 10000 nM; in assay [2], < 1000 nM; in assay [3], < 100 nM; in assay [4] (read-out: T47D proliferation), < 10000 nM; in assay [5], < 100 nM.

For `Nc1nc2cc(-c3ccc4ncc(C(=O)NC5CC5)n4c3)ccc2o1` [compound 187], the IC50 in assay [1] is < 10000 nM; in assay [2], < 1000 nM; in assay [3], < 100 nM; in assay [4] (read-out: T47D proliferation), < 1000 nM; in assay [5] it was < 100 nM.

Take `CCNC(=O)c1cnc2ccc(-c3ccc4oc(N)nc4c3)cn12` [compound 188]: the IC50 in assay [1] is < 1000 nM; in assay [2], < 1000 nM; in assay [3] it was < 100 nM; in assay [4] (read-out: T47D proliferation), < 1000 nM; in assay [5], < 100 nM.

As for `Nc1nc2cc(-c3ccc4ncc(C(=O)NCCO)n4c3)ccc2o1` [compound 189], the IC50 is < 1000 nM in assay [1]; < 1000 nM in assay [2]; < 100 nM in assay [3]; < 1000 nM in assay [4] (read-out: T47D proliferation); < 1000 nM in assay [5].

Regarding `Nc1nc2cc(-c3ccc4ncc(C(=O)N5CC(O)C5)n4c3)ccc2o1` [compound 200], the IC50 was < 10000 nM in assay [1] (in vitro); < 10000 nM in assay [2] (in vitro); < 100 nM in assay [3] (in vitro); < 10000 nM in assay [4] (setting [6]); < 100 nM in assay [5] (in vitro).

As for `Nc1nc2cc(-c3ccc4ncc(C(=O)N5CCC(O)C5)n4c3)ccc2o1` (centres unmarked) [compound 202], the IC50 is < 10000 nM in assay [1] (in vitro); < 10000 nM in assay [2] (in vitro); < 100 nM in assay [3] (in vitro); < 1000 nM in assay [4] (setting [6]); < 1000 nM in assay [5] (in vitro).

For `C[C@H](N)C(=O)N1CCN(c2cnc3ccc(-c4ccc5oc(N)nc5c4)cc3n2)CC1` [compound 207], the IC50 in assay [1] (in vitro) was < 100 nM; in assay [2] (in vitro), < 1000 nM; in assay [3] (in vitro) it was < 100 nM; in assay [4] (setting [6]) it was < 1000 nM; in assay [5] (in vitro), < 100 nM.

On to `C[C@@H](N)C(=O)N1CCN(c2cnc3ccc(-c4ccc5oc(N)nc5c4)cc3n2)CC1` [compound 208], for which the IC50 in assay [1] (in vitro) is < 1000 nM; in assay [2] (in vitro), < 1000 nM; in assay [3] (in vitro), < 100 nM; in assay [4] (setting [6]) it was < 10000 nM; in assay [5] (in vitro), < 10000 nM.

Regarding `Nc1nc2cc(-c3ccc4ncc(N5CCC(O)C5)nc4c3)ccc2o1` (centres unmarked) [compound 209], the IC50 in assay [1] (in vitro) is < 1000 nM; in assay [2] (in vitro) it was < 10000 nM; in assay [3] (in vitro), < 100 nM; in assay [4] (setting [6]) it was < 10000 nM; in assay [5] (in vitro), < 100 nM.

`CC(=O)N1CCC(Nc2ncnc3ccc(-c4ccc5oc(N)nc5c4)nc23)CC1` [compound 211]: the IC50 in assay [1] (in vitro) was < 100 nM; in assay [2] (in vitro), < 100 nM; in assay [3] (in vitro), < 100 nM; in assay [4] (setting [6]), < 1000 nM; in assay [5] (in vitro), < 100 nM.

On to `CN1CCC(Nc2ncnc3ccc(-c4ccc5oc(N)nc5c4)nc23)CC1` [compound 212], for which the IC50 is < 1000 nM in assay [1] (in vitro); < 1000 nM in assay [2] (in vitro); < 100 nM in assay [3] (in vitro); < 1000 nM in assay [4] (setting [6]); < 1000 nM in assay [5] (in vitro).

Take `Nc1nc2cc(-c3ccc4sc(N)nc4c3)ccc2o1` [compound 248]: the IC50 is < 1000 nM in assay [1] (in vitro); < 10000 nM in assay [2] (in vitro); < 10000 nM in assay [3] (in vitro); < 10000 nM in assay [4] (setting [6]); < 1000 nM in assay [5] (in vitro).

Turning to `Nc1nc2cc(-c3ccc4ncc(C(=O)N5CCN(C6CC6)CC5)n4c3)ccc2o1` [compound 263], the IC50 was < 10000 nM in assay [1] (in vitro); < 10000 nM in assay [2] (in vitro); < 100 nM in assay [3] (in vitro); < 10000 nM in assay [4] (setting [6]); < 10000 nM in assay [5] (in vitro).

Regarding `Nc1nc2cc(-c3ccc4ncc(C(=O)N5CC[C@H](O)C5)n4c3)ccc2o1` [compound 264], the IC50 in assay [1] (in vitro) was < 10000 nM; in assay [2] (in vitro) it was < 10000 nM; in assay [3] (in vitro), < 100 nM; in assay [4] (setting [6]) it was < 1000 nM; in assay [5] (in vitro), < 1000 nM.

In the case of `Nc1nc2cc(-c3ccc4ncc(C(=O)N5CC[C@@H](O)C5)n4c3)ccc2o1` [compound 265], the IC50 in assay [1] (in vitro) was < 10000 nM; in assay [2] (in vitro), < 10000 nM; in assay [3] (in vitro), < 100 nM; in assay [4] (setting [6]), < 1000 nM; in assay [5] (in vitro) it was < 100 nM.

On to `Nc1nc2cc(-c3ccc4ncc(C(=O)N5CC(N6CCOCC6)C5)n4c3)ccc2o1` [compound 266], for which the IC50 in assay [1] (in vitro) was < 10000 nM; in assay [2] (in vitro), < 1000 nM; in assay [3] (in vitro), < 100 nM; in assay [4] (setting [6]), < 10000 nM; in assay [5] (in vitro) it was < 1000 nM.
